According to patent publication US6737383B1, “Herbicidal oxadiazolidines” (priority 1999, dated 2004):

What was measured:
blackgrass = assay: Test B pre/postemergence blackgrass; type: in vivo, Alopecurus myosuroides
Procedure, shortened: (§1)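 Herbicidal effect was estimated by eye on a ten-point control scale after plants spent twelve to sixteen days in a greenhouse following soil or foliar treatment. Foliar sprays targeted plants at one to four leaves; all doses were formulated in a non-phytotoxic solvent with surfactant.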

surinam grass = assay: Test B pre/postemergence surinam grass; type: in vivo, Brachiaria decumbens
Procedure, shortened: as §1

cocklebur = assay: Test B pre/postemergence cocklebur; type: in vivo, Xanthium strumarium
Procedure, shortened: as §1

soybean = assay: Test B pre/postemergence soybean; type: in vivo, Glycine max
Procedure, shortened: as §1

bedstraw = assay: Test B pre/postemergence bedstraw; type: in vivo, Galium aparine; settings: for Bedstraw plant response rating: Rate 62 g/ha
Procedure, shortened: as §1

purple nutsedge = assay: Test B pre/postemergence purple nutsedge; type: in vivo, Cyperus rotundus
Procedure, shortened: as §1

crabgrass = assay: Test B pre/postemergence crabgrass; type: in vivo, Digitaria sanguinalis
Procedure, shortened: as §1

wild oat = assay: Test B pre/postemergence wild oat; type: in vivo, Avena fatua
Procedure, shortened: as §1

bamyardgrass = assay: Test B flood test barnyardgrass; type: in vivo, Echinochloa crus-galli
Procedure, shortened: (§2)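 Each value is a visual injury score relative to controls, with 10 meaning complete control and 0 no effect. Evaluation took place twelve to sixteen days after the 2-leaf-stage plants were treated and kept in the greenhouse.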

sugar beet = assay: Test B pre/postemergence sugar beet; type: in vivo, Beta vulgaris
Procedure, shortened: as §1

corn = assay: Test B pre/postemergence corn; type: in vivo, Zea mays
Procedure, shortened: as §1

duck salad = assay: Test B flood test duck salad; type: in vivo, Heteranthera limosa
Procedure, shortened: as §2

wheat = assay: Test B pre/postemergence wheat; type: in vivo, Triticum aestivum
Procedure, shortened: as §1

giant foxtail = assay: Test B pre/postemergence giant foxtail; type: in vivo, Setaria faberii
Procedure, shortened: as §1

rice = assay: Test B flood test rice; type: in vivo, Oryza sativa
Procedure, shortened: as §2

morningglory = assay: Test B pre/postemergence morningglory; type: in vivo, Ipomoea hederacea
Procedure, shortened: as §1

velvetleaf = assay: Test B pre/postemergence velvetleaf; type: in vivo, Abutilon theophrasti
Procedure, shortened: as §1

rape = assay: Test B pre/postemergence rape; type: in vivo, Brassica napus; settings: for Rape plant response rating: Rate 62 g/ha
Procedure, shortened: as §1

pigweed = assay: Test B pre/postemergence pigweed; type: in vivo, Amaranthus retroflexus
Procedure, shortened: as §1

smallflower flatsedge = assay: Test B flood test smallflower flatsedge; type: in vivo, Cyperus difformis
Procedure, shortened: as §2

[1] = Postemergence, Rate 125 g/ha, scale 0 to 10, 0 is no effect, 10 is complete control
[2] = Preemergence, Rate 62 g/ha, scale of 0 to 10 where 0 is no effect and 10 is complete control
[3] = Preemergence, Rate 250 g/ha, scale of 0 to 10 where 0 is no effect and 10 is complete control
[4] = Preemergence, Rate 500 g/ha, scale of 0 to 10 where 0 is no effect and 10 is complete control
[5] = Rate 62 g/ha, Postemergence, scale 0 to 10 (0 no effect, 10 complete control)
[6] = Rate 250 g/ha, Postemergence, scale of 0 to 10 where 0 is no effect and 10 is complete control
[7] = Rate 500 g/ha, Postemergence, scale 0 to 10, 0 no effect, 10 complete control
[8] = Preemergence, scale of 0 to 10 where 0 is no effect and 10 is complete control
[9] = Postemergence, scale 0 to 10 (0 no effect, 10 complete control)
[10] = Rate 62 g/ha, headed Pre-emergence (flood test species), scale 0 to 10 (0 no effect, 10 complete control)
[11] = Rate 125 g/ha, Pre-emergence, flood test species, scale 0 to 10 where 0 is no effect and 10 is complete control
[12] = Rate 250 g/ha, Pre-emergence, flood-test species, scale 0 to 10, 0 is no effect, 10 is complete control
[13] = Rate 500 g/ha, Pre-emergence, flood test species, scale 0 to 10 (0 no effect, 10 complete control)

With `CC(C)N(C(=O)n1oc(=O)n(-c2ccc3ccccc3c2)c1=O)c1ccc(F)cc1` [Compound 329] the “Plant response rating, Blackgrass” value (blackgrass; [1]) was 0, the “Blackgrass plant response rating” value (blackgrass; [2]) was 0 and the “Blackgrass plant response rating (0 to 10 scale)” value (blackgrass; Preemergence, Rate 125 g/ha) was 0. The “Blackgrass plant response rating” value (blackgrass; [3]) was 0, the “Blackgrass plant response rating” value (blackgrass; [4]) was 0 and the “Blackgrass plant response rating” value (blackgrass; [5]) was 0. The “Plant response rating, Blackgrass” value (blackgrass; [6]) was 0, the “Plant response rating, Blackgrass” value (blackgrass; [7]) was 0 and the “Plant response rating, B. signalgrass” value (surinam grass; [1]) was 0. The “B. signalgrass plant response rating” value (surinam grass; [2]) was 0, the “B. signalgrass plant response rating (0 to 10 scale, 0 is no effect, 10 is complete control)” value (surinam grass; Preemergence, Rate 125 g/ha) was 0 and the “B. signalgrass plant response rating” value (surinam grass; [3]) was 0. For the same compound, the “B. signalgrass plant response rating” value (surinam grass; [4]) was 0, the “B. signalgrass plant response rating” value (surinam grass; [5]) was 0 and the “Plant response rating, B. signalgrass” value (surinam grass; [6]) was 0. For the same compound, the “Plant response rating, B. signalgrass” value (surinam grass; [7]) was 0, the “Plant response rating, Cocklebur” value (cocklebur; [1]) was 0 and the “Cocklebur plant response rating” value (cocklebur; [2]) was 0. For the same compound, the “Cocklebur plant response rating (0 to 10 scale)” value (cocklebur; Preemergence, Rate 125 g/ha) was 0, the “Cocklebur plant response rating” value (cocklebur; [3]) was 0 and the “Cocklebur plant response rating” value (cocklebur; [4]) was 0. The “Cocklebur plant response rating” value (cocklebur; [5]) was 0, the “Plant response rating, Cocklebur” value (cocklebur; [7]) was 4 and the “Plant response rating, Soybean” value (soybean; [1]) was 1. For the same compound, the “Soybean plant response rating” value (soybean; [2]) was 0, the “Soybean plant response rating (0 to 10 scale)” value (soybean; Preemergence, Rate 125 g/ha) was 0 and the “Soybean plant response rating” value (soybean; [3]) was 0. For the same compound, the “Soybean plant response rating” value (soybean; [4]) was 0, the “Soybean plant response rating” value (soybean; [5]) was 1 and the “Plant response rating, Soybean” value (soybean; [7]) was 2. For the same compound, the “Plant response rating, Bedstraw” value (bedstraw; [1]) was 0, the “Bedstraw plant response rating” value (bedstraw; [8]) was 0 and the “Bedstraw plant response rating (0 to 10 scale)” value (bedstraw; Preemergence, Rate 125 g/ha) was 0. For the same compound, the “Bedstraw plant response rating” value (bedstraw; [9]) was 0, the “Plant response rating, Nutsedge” value (purple nutsedge; [1]) was 0 and the “Nutsedge plant response rating” value (purple nutsedge; [2]) was 0. For the same compound, the “Nutsedge plant response rating” value (purple nutsedge; [3]) was 0, the “Nutsedge plant response rating” value (purple nutsedge; [5]) was 0 and the “Plant response rating, Nutsedge” value (purple nutsedge; [7]) was 0. For the same compound, the “Plant response rating, Crabgrass” value (crabgrass; [1]) was 0, the “Crabgrass plant response rating” value (crabgrass; [2]) was 0 and the “Crabgrass plant response rating (0 to 10 scale)” value (crabgrass; Preemergence, Rate 125 g/ha) was 0. The “Crabgrass plant response rating” value (crabgrass; [3]) was 0, the “Crabgrass plant response rating” value (crabgrass; [4]) was 3 and the “Crabgrass plant response rating” value (crabgrass; [5]) was 0. For the same compound, the “Plant response rating, Crabgrass” value (crabgrass; [7]) was 0, the “Plant response rating, Wild oats” value (wild oat; [1]) was 0 and the “Wild oats plant response rating” value (wild oat; [2]) was 0. For the same compound, the “Wild oats plant response rating (0 to 10 scale)” value (wild oat; Preemergence, Rate 125 g/ha) was 0, the “Wild oats plant response rating” value (wild oat; [3]) was 0 and the “Wild oats plant response rating” value (wild oat; [4]) was 0. For the same compound, the “Wild oats plant response rating” value (wild oat; [5]) was 0, the “Plant response rating, Wild oats” value (wild oat; [7]) was 0 and the “Barnyardgrass plant response rating” value (bamyardgrass; [10]) was 0. The “Barnyardgrass plant response rating” value (bamyardgrass; [11]) was 0, the “Barnyardgrass plant response rating” value (bamyardgrass; [12]) was 0 and the “Barnyardgrass plant response rating” value (bamyardgrass; [13]) was 0. The “Plant response rating, Sugarbeets” value (sugar beet; [1]) was 0, the “Sugarbeets plant response rating” value (sugar beet; [2]) was 0 and the “Sugarbeets plant response rating (0 to 10 scale)” value (sugar beet; Preemergence, Rate 125 g/ha) was 0. The “Sugarbeets plant response rating” value (sugar beet; [3]) was 0, the “Sugarbeets plant response rating” value (sugar beet; [4]) was 0 and the “Sugarbeets plant response rating” value (sugar beet; [5]) was 0. The “Plant response rating, Sugarbeets” value (sugar beet; [7]) was 0, the “Plant response rating, Corn” value (corn; [1]) was 0 and the “Corn plant response rating” value (corn; [2]) was 0. The “Corn plant response rating (0 to 10 scale)” value (corn; Preemergence, Rate 125 g/ha) was 0, the “Corn plant response rating” value (corn; [3]) was 0 and the “Corn plant response rating” value (corn; [4]) was 0. For the same compound, the “Corn plant response rating” value (corn; [5]) was 0, the “Plant response rating, Corn” value (corn; [7]) was 0 and the “Ducksalad plant response rating” value (duck salad; [10]) was 0. The “Ducksalad plant response rating” value (duck salad; [11]) was 0, the “Ducksalad plant response rating” value (duck salad; [12]) was 0 and the “Ducksalad plant response rating” value (duck salad; [13]) was 0. The “Plant response rating, Wheat” value (wheat; [1]) was 0, the “Wheat plant response rating” value (wheat; [2]) was 0 and the “Wheat plant response rating (0 to 10 scale)” value (wheat; Preemergence, Rate 125 g/ha) was 0. For the same compound, the “Wheat plant response rating” value (wheat; [3]) was 0, the “Wheat plant response rating” value (wheat; [4]) was 0 and the “Wheat plant response rating” value (wheat; [5]) was 0. For the same compound, the “Plant response rating, Wheat” value (wheat; [7]) was 0, the “Plant response rating, Giant foxtail” value (giant foxtail; [1]) was 0 and the “Giant foxtail plant response rating” value (giant foxtail; [2]) was 0. For the same compound, the “Giant foxtail plant response rating (0 to 10 scale)” value (giant foxtail; Preemergence, Rate 125 g/ha) was 0, the “Giant foxtail plant response rating” value (giant foxtail; [3]) was 0 and the “Giant foxtail plant response rating” value (giant foxtail; [4]) was 3. For the same compound, the “Giant foxtail plant response rating” value (giant foxtail; [5]) was 0, the “Plant response rating, Giant foxtail” value (giant foxtail; [7]) was 0 and the “Rice plant response rating” value (rice; [10]) was 0. The “Rice plant response rating” value (rice; [11]) was 0, the “Rice plant response rating” value (rice; [12]) was 0 and the “Rice plant response rating” value (rice; [13]) was 0. For the same compound, the “Plant response rating, Morningglory” value (morningglory; [1]) was 0, the “Morningglory plant response rating” value (morningglory; [2]) was 0 and the “Morningglory plant response rating (0 to 10 scale)” value (morningglory; Preemergence, Rate 125 g/ha) was 0. The “Morningglory plant response rating” value (morningglory; [3]) was 0, the “Morningglory plant response rating” value (morningglory; [4]) was 0 and the “Morningglory plant response rating” value (morningglory; [5]) was 0. For the same compound, the “Plant response rating, Morningglory” value (morningglory; [7]) was 0, the “Plant response rating, Velvetleaf” value (velvetleaf; [1]) was 0 and the “Velvetleaf plant response rating” value (velvetleaf; [2]) was 0. For the same compound, the “Velvetleaf plant response rating (0 to 10 scale)” value (velvetleaf; Preemergence, Rate 125 g/ha) was 0, the “Velvetleaf plant response rating” value (velvetleaf; [3]) was 0 and the “Velvetleaf plant response rating” value (velvetleaf; [4]) was 0. The “Velvetleaf plant response rating” value (velvetleaf; [5]) was 0, the “Plant response rating, Velvetleaf” value (velvetleaf; [7]) was 0 and the “Plant response rating, Rape” value (rape; [1]) was 0. For the same compound, the “Rape plant response rating” value (rape; [8]) was 0, the “Rape plant response rating (0 to 10 scale)” value (rape; Preemergence, Rate 125 g/ha) was 0 and the “Rape plant response rating” value (rape; [9]) was 0. The “Plant response rating, Rape” value (rape; [7]) was 0, the “Plant response rating, Redroot pigweed” value (pigweed; [1]) was 0 and the “Redroot pigweed plant response rating” value (pigweed; [2]) was 0. The “Redroot pigweed plant response rating (0 to 10 scale)” value (pigweed; Preemergence, Rate 125 g/ha) was 0, the “Redroot pigweed plant response rating” value (pigweed; [3]) was 0 and the “Redroot pigweed plant response rating” value (pigweed; [4]) was 0. For the same compound, the “Redroot pigweed plant response rating” value (pigweed; [5]) was 0, the “Plant response rating, Redroot pigweed” value (pigweed; [7]) was 0 and the “S. Flatsedge plant response rating” value (smallflower flatsedge; [10]) was 0. The “S. Flatsedge plant response rating” value (smallflower flatsedge; [11]) was 0, the “S. Flatsedge plant response rating” value (smallflower flatsedge; [12]) was 0 and the “S. Flatsedge plant response rating” value (smallflower flatsedge; [13]) was 0.
